From paper PMC7822874, “Chemoprotective antimalarials identified through quantitative high-throughput screening of Plasmodium blood and liver stage parasites” (Scientific Reports, 2021)
Like-named read-outs stand apart in the source and are kept apart here.

Columns and labels:
in vitro = conditions: human
[1] = system: P. berghei-ANKA-GFP-LucCON liver stage parasites in HepG2-A16-CD81EGFP cells; experiment: P. berghei liver stage Pb-Luc assay, Method 1 (UCSD, 1536-well); type: cell-based, Plasmodium berghei; conditions: for activity at 1 µM / activity at 3 µM / AC50: Plasmodium berghei; for activity at 1 µM / activity at 3 µM: 48 h
[2] = system: luciferase-expressing P. berghei liver stage parasites in HepG2 cells; experiment: Inhibition of liver-stage development assay (ILSDA), Method 2 (WRAIR, 96-well); type: cell-based, Plasmodium berghei; conditions: for AC50: Plasmodium berghei
[3] = system: Plasmodium falciparum Dd2 asexual blood stage parasites; experiment: microbe, parasite or virus in culture; set-up: species or system Plasmodium falciparum Dd2 in human erythrocytes; single determination (one 11-point concentration-response curve); conditions: Plasmodium falciparum, DD2, Erythrocyte, 72 h; read-out: AC50
HepG2-A16-CD81EGFP cells = conditions: average of 2 wells; for HepG2 viability signal, 3 uM, repeat 2: nominal 3 uM (10 mM stock), 4.5 uM for 15 mM, 3.6 uM for 12 mM, 6 uM for 20 mM stock
[4] = HepG2-A16-CD81EGFP cells, uninfected
[5] = Method 2, Decrease = decreasing P. berghei viability with dose, Increase = increasing signal, Inactive = no dose response
[6] = HepG2, Method 2, Hill fit, 50% of maximum activity response, read-out: AC50
[7] = HepG2, Method 2, log10 of molar AC50 from Hill fit, read-out: Log AC50 (converted)
[8] = nominal 1 uM (10 mM stock), […] for 15 mM, 1.2 uM for 12 mM, 2 uM for 20 mM stock, average of 2 wells, 1536-well plate, repeat 1, read-out: Pb-Luc signal, 1 uM, repeat 1
[9] = nominal 1 uM (10 mM stock), […] for 15 mM, 1.2 uM for 12 mM, 2 uM for 20 mM stock, average of 2 wells, 1536-well plate, repeat 2, read-out: Pb-Luc signal, 1 uM, repeat 2
[10] = nominal 1 uM (10 mM stock), […] for 15 mM, 1.2 uM for 12 mM, 2 uM for 20 mM stock, average of 2 wells, 1536-well plate, repeat 3, read-out: Pb-Luc signal, 1 uM, repeat 3
[11] = nominal 3 uM (10 mM stock), 4.5 uM for 15 mM, 3.6 uM for 12 mM, 6 uM for 20 mM stock, average of 2 wells, 1536-well plate, repeat 1, read-out: Pb-Luc signal, 3 uM, repeat 1
[12] = nominal 3 uM (10 mM stock), 4.5 uM for 15 mM, 3.6 uM for 12 mM, 6 uM for 20 mM stock, average of 2 wells, 1536-well plate, repeat 2, read-out: Pb-Luc signal, 3 uM, repeat 2
[13] = nominal 3 uM (10 mM stock), 4.5 uM for 15 mM, 3.6 uM for 12 mM, 6 uM for 20 mM stock, average of 2 wells, 1536-well plate, repeat 3, read-out: Pb-Luc signal, 3 uM, repeat 3
[14] = Method 1, Hill fit, 50% of maximum activity response, read-out: AC50
[15] = Method 1, log10 of molar AC50 from Hill fit, read-out: Log AC50 (converted)
[16] = nominal 1 uM (10 mM stock), […] for 15 mM, 1.2 uM for 12 mM, 2 uM for 20 mM stock

In the case of O=C(NC1CC1)c1ccc(CSCc2ccccc2Cl)o1 [MLS001030935-01], the viability at 48 h, 1 µM (in vitro; [4]) is reported as 111%, the viability at 48 h, 3 µM (in vitro; [4]) is reported as 100% and the activity at 1 µM ([1]; 1 uM (compounds provided at 10 mM), average of 2 wells on a 1536 well plate, column 11, read-out: Pb-Luc (P. berghei liver stage), % of control, lower concentration, first repeat) is reported as 16%. It also gave an activity at 1 µM ([1]; 1 uM (compounds provided at 10 mM), average of 2 wells on a 1536 well plate, column 12, read-out: Pb-Luc (P. berghei liver stage), % of control, lower concentration, second repeat) of 12%, an activity at 3 µM ([1]; 3 uM (compounds provided at 10 mM), average of 2 wells on a 1536 well plate, column 8, read-out: Pb-Luc (P. berghei liver stage), % of control, higher concentration, first repeat) of 1% and an activity at 3 µM ([1]; 3 uM (compounds provided at 10 mM), average of 2 wells on a 1536 well plate, column 9, read-out: Pb-Luc (P. berghei liver stage), % of control, higher concentration, second repeat) of 9%. For the same compound, the “Max Resp (signal direction of the dose response)” value (from here on “Max Resp”) [2, 5] was “Decrease”, the AC50 [2, 6] was 0.2 µM and the AC50 [2, 7] was 0.2 µM.

Compound Cc1ccc(CSCc2ccc(C(=O)NC3CC3)o2)cc1 [MLS001031023-01] has an AC50 [3] of 2.66 µM, a viability at 48 h, 1 µM (in vitro; [4]) of 93% and a viability at 48 h, 3 µM (in vitro; [4]) of 88%. For the same compound, the “Max Resp” value [2, 5] was “Decrease”, the AC50 [2, 6] was 0.224 µM and the AC50 [2, 7] was 0.224 µM.

In the case of Cc1ccc(C(=O)Nc2nc(-c3ccccn3)cs2)cc1S(=O)(=O)N1CCOCC1 [MLS002157637-01], the viability at 48 h, 1 µM (in vitro; [4]) is reported as 92%, the viability at 48 h, 3 µM (in vitro; [4]) is reported as 55% and the “Max Resp” value [2, 5] is reported as “Inactive”.

COc1ccc(-c2cc(C(F)(F)F)nc(SCCC(=O)Nc3cc(C)ccc3O)n2)cc1 [NCGC00101472-01] gave an AC50 [3] of 1.88 µM, an activity at 1 µM [1, 8] of 38.3% and an activity at 1 µM [1, 9] of 70%. It also gave an activity at 1 µM [1, 10] of 108%, an activity at 3 µM [1, 11] of 2.83% and an activity at 3 µM [1, 12] of 48.6%. The activity at 3 µM [1, 13] was 51.1%, the AC50 [1, 14] was 2 µM and the AC50 [1, 15] was 2 µM. For the same compound, the “HepG2 viability signal, 1 uM, repeat 1” value (HepG2-A16-CD81EGFP cells; nominal 1 uM (10 mM stock), […] for 15 mM, 1.2 uM for 12 mM, 2 uM for 20 mM stock, repeat 1) was 98.35%, the “HepG2 viability signal, 1 uM, repeat 2” value (HepG2-A16-CD81EGFP cells; [16]) was 103.33% and the “HepG2 viability signal, 3 uM, repeat 2” value (HepG2-A16-CD81EGFP cells) was 103.42%. The “Max Resp” value [2, 5] was “Inactive”.

For CCc1ccc(C2Sc3ccccc3N=C3C2=C(O)c2ccccc23)cc1 (stereo not drawn) [NCGC00108831-01], the viability at 48 h, 1 µM (in vitro; [4]) was 103%, the viability at 48 h, 3 µM (in vitro; [4]) was 105% and the “Max Resp” value ([1]; Method 1, Decrease = decreasing P. berghei viability with dose, Increase = increasing signal, Inactive = no dose response) was “Decrease”. It also gave an activity at 1 µM [1, 8] of 12.1%, an activity at 1 µM [1, 9] of 58.2% and an activity at 1 µM [1, 10] of 12.7%. The activity at 3 µM [1, 11] was 2.42%, the activity at 3 µM [1, 12] was 50.9% and the activity at 3 µM [1, 13] was 62.2%. For the same compound, the “HepG2 viability signal, 1 uM, repeat 2” value (HepG2-A16-CD81EGFP cells; [16]) was 104.01%, the “HepG2 viability signal, 3 uM, repeat 2” value (HepG2-A16-CD81EGFP cells) was 104.74% and the “Max Resp” value [2, 5] was “Decrease”. The AC50 [2, 6] was 0.398 µM and the AC50 [2, 7] was 0.398 µM.

With CCCCN(CC)CCNC(=O)c1cc2c(-c3ccc(Cl)cc3)nn(C)c2s1 [NCGC00108995] the viability at 66 h (in vitro; [4]) was 102% and the “Max Resp” value [2, 5] was “Inactive”.

In the case of O=C1c2ccccc2-n2c1nc1ccccc1c2=O [NCGC00160337], the viability (in vitro) is reported as 87% and the “Max Resp” value [2] is reported as “Increase”.

In the case of Cc1ccc(Nc2nc(NCCO)c3ccccc3n2)cc1C [NCGC00273600-02], the viability at 48 h, 1 µM (in vitro; [4]) is reported as 96%, the viability at 48 h, 3 µM (in vitro; [4]) is reported as 82% and the “Max Resp” value [2, 5] is reported as “Decrease”. The AC50 [2, 6] was 0.562 µM and the AC50 [2, 7] was 0.562 µM.

For Cc1ccc(C(=O)Nc2nc(-c3ccccn3)cs2)cc1[S+](=O)([O-])N1CCOCC1.O=C(O)C(F)(F)F [NCGC00345210-01], the viability at 48 h, 1 µM (in vitro; [4]) was 73%, the viability at 48 h, 3 µM (in vitro; [4]) was 31% and the “Max Resp” value [2, 5] was “Inactive”.

In the case of c1ccc(CNc2nc(NCc3ccccc3)c3ccccc3n2)cc1 [NCGC00347066-01], the viability at 48 h, 1 µM (in vitro; [4]) is reported as 83%, the viability at 48 h, 3 µM (in vitro; [4]) is reported as 72% and the “Max Resp” value [2, 5] is reported as “Inactive”.

Work on O=C(Nc1ccc2c(N3CCCCC3)ncnc2c1)c1cc(F)cc(F)c1 [NCGC00425525-01] yielded an AC50 [3] of 1.88 µM, an AC50 [1, 14] of 1.41 µM and an AC50 [1, 15] of 1.41 µM. For the same compound, the “Activity direction (Decrease / Inactive)” value ([2]; P. berghei liver stage, Method 2, dose response) was “Decrease”, the AC50 ([2]; HepG2, P. berghei liver stage, Method 2, dose response, read-out: AC50) was 0.398 µM and the AC50 ([2]; HepG2, P. berghei liver stage, Method 2, dose response, read-out: Log AC50 (converted)) was 0.398 µM.
